Here are results for 1 molecule from US12508247B2, “Controlled release injectable ondansetron formulations” (SHILPA MEDICARE LIMITED, priority 2019, dated 2025).

This series is described as follows: Fasting single dose PK study in dogs: plasma ondansetron after intravenous bolus of marketed ondansetron injection (reference). It counts as in vivo. The settings on record: fasted male Beagle dogs; for C0: 2 mg/mL solution; for Vd: read-out: Vss. The protocol: Male Beagle dogs were fasted are divided into six groups as G1, G2, G3, G4, G5 and G6 each consisting of four dogs.
Blood samples were collected from each IM route dogs at 0 (pre-dose), 0.5, 1, 2, 4, 8, 16, 24, 36, 48, 72, 96, 120, 144, 168 and 240 h post-dose; for IV route dogs, blood samples were collected at 0 (pre-dose), 0.167, 0.33, 0.5, 0.75, 1, 2, 4, 8, 12 and 24 h post-dose and analysed for ondansetron in plasma and calculated using the noncompartmental analysis tool of the validated Phoenix WinNonlin software (Version 8.0). The summary of plasma pharmacokinetics parameters of ondansetron for G1 and G2 animals is summarized in Table—2 (FIGS. 1, 2) and G3, G4, G5 and G6 (FIGS. 3, 4, 5 and 6) animals is summarized in Table— 3.

The structures appear in SMILES notation. Read-outs that look alike come from different tables or passages of the source.

For the setting “G1, IV bolus 4 mg/dog”, `Cc1nccn1CC1CCc2c(c3ccccc3n2C)C1=O` (centres unmarked) [Ondansetron] had a C0 of 110 ng/mL, an AUC(0-inf) of 107 ng·h/mL, an AUC(0-t) of 106 ng·h/mL and an MRT last of 1.12 h. For the same molecule, where the note is “G1, IV bolus 4 mg/dog”, the clearance was 644 mL/min, the half-life is 0.878 h and the Vd worked out at 40.3 L. Under “G2, IV bolus 24 mg/dog”, the C0 worked out at 828 ng/mL, the AUC(0-inf) stood at 716 ng·h/mL, the AUC(0-t) was 715 ng·h/mL and the MRT last was determined as 1.17 h. For the same molecule, for the setting “G2, IV bolus 24 mg/dog”, the clearance was 563 mL/min, the half-life is 1.28 h and the Vd is 36.3 L.

What is called AUC(0-inf) is total exposure, with the tail of the curve extrapolated. A lower AUC(0-inf) goes with less exposure. The AUC(0-t) is the area under the concentration-time curve up to a stated or last time point. What is called MRT last is the average time that molecules of a dose stay in the body. A word on the clearance: it is the volume of plasma or blood freed of the substance per unit of time. A low value points to inefficient removal. The term half-life denotes the time needed for the level to fall by half in the phase considered. Low readings indicate rapid decline, high ones slow decline.
